Laboratory results: patent US5631279A, “Perhydroisoindole derivatives, preparation thereof and pharmaceutical compositions containing same” (Rhone-Poulenc Rorer, S.A., priority 1993, dated 1997)

Test system: rabbit pulmonary artery
Test: Antagonism of rabbit pulmonary artery contractions induced by [Lys5 MeLeu9 Nle10]NKA(4-10)
Design: species or system rabbit (male, New Zealand albino)
Conditions: product incubated for 2 hours; [Lys5 MeLeu9 Nle10]NKA(4-10) as agonist; Krebs solution 37° C.
Method: The in vitro antagonistic activity of the products is determined with respect to rabbit pulmonary artery contractions induced by [Lys^5 MeLeu^9 Nle^10 ]NKA(4-10) according to the technique described by D. Regoli et al., Trends Pharmacol. Sci, 2, 290-295 (1988) and P. D'Orleans-Juste et al., Eur. J. Pharmacol., 125, 37-44 (1985). The pulmonary artery of the rabbit (male, New Zealand albino) is withdrawn; the endothelium is destroyed by introduction into the arterial lumen of a glass rod coated with filter paper, and the artery is then cut into rings and incubated in an isolated-organ tank containing an oxygenated Krebs solution (95% O2; 5% CO2) at 37° C. at a tension of 1 g. After determining the agonistic activity of [Lys^5 MeLeu9Nle^10 ]NKA(4-10) (contractile effect), the product to be studied is incubated for 2 hours in the isolated-organ tank before a further addition of [Lys^5 MeLeu^9 Nle^10 ]NKA(4-10). The percentage inhibition obtained is calculated. The antagonistic activity of a product is expressed in terms of IC^50.
In the above technique, the products studied display an antagonism to rabbit pulmonary artery contractions at the following concentration: […]

Structure (SMILES): COc1ccccc1[C@@]1(O)[C@H](O)CC(c2ccccc2)(c2ccccc2)[C@@H]2CN(C(=O)Cc3c[nH]c4ccccc34)C[C@@H]21 [Example 1]
- IC50: 215 nM
